Experimental data published in patent US20120059162A1, “FUSED IMIDAZOLE DERIVATIVE HAVING TTK INHIBITORY ACTION” (Oncotherapy Science, Inc., priority 2009, published 2012).

How the values were obtained:
A549 = A549 assay: screening of cancer cell growth inhibiting compound; format: cell-based; settings: Homo sapiens, 72 h; A549 cells, three days, WST-8; read-out: A549 IC50
Method: Screening of Cancer Cell Growth Inhibiting Compound
A cell suspension solution (RERF-LC-AI, A549: 1×10^4/ml, MRC5: 3×10^4/ml and 1×10^5/ml) adjusted to an appropriate concentration with D-MEM (hereinafter, referred to as a culture solution and manufactured by Nacalai Tesque Inc.) supplemented with 10% FBS (HyClone) was added to the wells of a 96-well plate (hereinafter, well plate) at a rate of 100 μL/well and incubated in a CO2 incubator at 37° C. for a day. […] Next, cells were added to each well of the well plate prepared and the above compound dilution solution was added at a rate of 100 μL/well to obtain 200 μL/well. Thereafter, the cells were incubated in the CO2 incubator at 37° C. for further three days. To each well of the well plate, 10 μL of a WST-8 kit (Kishida Chemical Co., Ltd.) solution for counting the number of cells was added and a color reaction was performed in the CO2 incubator for 1 to 4 hours. After the absorbance at 450 nm (reference wavelength: 620 nm) was measured by a microplate reader, suppressing action of the test substance was calculated based on the absorbance value in the absence of a test substance.

TTK = molecular target: T1, TTK (Homo sapiens, UniProt P33981); test: TTK assay: screening of TTK kinase activity suppressing action using p38 MAPK peptide; format: biochemical; settings: p38 MAPK peptide substrate; read-out: TTK IC50
T1 sequence (P33981 1-857): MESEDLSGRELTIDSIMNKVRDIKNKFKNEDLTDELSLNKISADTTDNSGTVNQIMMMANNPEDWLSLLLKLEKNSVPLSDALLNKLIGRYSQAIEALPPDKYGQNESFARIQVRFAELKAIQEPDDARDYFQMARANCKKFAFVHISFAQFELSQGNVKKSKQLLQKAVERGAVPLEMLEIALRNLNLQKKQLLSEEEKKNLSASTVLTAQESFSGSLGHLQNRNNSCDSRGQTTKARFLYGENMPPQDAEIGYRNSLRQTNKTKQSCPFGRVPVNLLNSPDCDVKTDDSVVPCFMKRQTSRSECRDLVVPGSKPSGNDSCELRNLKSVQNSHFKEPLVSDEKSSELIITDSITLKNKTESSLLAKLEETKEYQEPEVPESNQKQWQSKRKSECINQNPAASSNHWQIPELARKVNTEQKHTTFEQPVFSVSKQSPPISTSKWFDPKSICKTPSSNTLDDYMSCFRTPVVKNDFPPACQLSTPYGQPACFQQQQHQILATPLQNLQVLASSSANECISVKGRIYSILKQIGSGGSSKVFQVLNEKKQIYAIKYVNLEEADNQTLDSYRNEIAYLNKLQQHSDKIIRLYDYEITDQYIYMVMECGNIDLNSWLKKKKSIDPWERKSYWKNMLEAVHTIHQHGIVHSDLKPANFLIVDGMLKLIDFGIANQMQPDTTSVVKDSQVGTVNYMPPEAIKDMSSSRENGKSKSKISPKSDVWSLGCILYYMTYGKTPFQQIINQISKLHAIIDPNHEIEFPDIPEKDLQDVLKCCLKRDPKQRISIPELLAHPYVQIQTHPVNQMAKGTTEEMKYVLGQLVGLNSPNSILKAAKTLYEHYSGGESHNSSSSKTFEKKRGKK
Method: Screening of a compound having a TTK kinase activity suppressing action using p38 MAPK peptide
A test substance 1.0 μL (solvent: 10% (v/v) DMSO), TTK solution 5 μL (composition: 4 μg/ml TTK, 25 mM Tris-HCl, pH7.5, 5 mM β-glycerophosphate, 2 mM DTT, 0.1 mM Na3VO4, 5 mM MgCl2, 0.1% (w/v)BSA) and a substrate solution 5 μL (composition: 60 μM p38 MAPK peptide, 60 μM ATP, 25 mM Tris-HCl, pH7.5, 5 mM β-glycerophosphate, 2 mM DTT, 0.1 mM Na3VO4, 5 mM MgCl2, 0.1% (w/v)BSA) were mixed in the wells of a 384-well microtiter plate (manufactured by Corning Incorporated) made of polypropylene and loaded in a constant temperature and humidity room.
From the resultant mixture, an aliquot of 1.7 μL was taken out and mixed with the reaction terminating solution (60 μl) in the wells of a 384-well microtiter plate (manufactured by Corning Incorporated) made of polypropylene. Thereafter, 40 μL of the mixture was transferred to a 384-well black NeutrAvidin plate (PIERCE), sealed and incubated under room temperature for 30 minutes. […] Similarly, the plate was washed with TTBS (100 μL) three times, 40 μl of a secondary antibody solution (Eu-N1 labeled Anti-mouse IgG (Perkin Elmer, #AD0124)) was added and incubated under room temperature for 30 minutes. After the plate was washed with TTBS (100 μL) five times, 40 μL of an enhance solution (Perkin Elmer) was added and incubated under room temperature for 5 minutes. […] Based on the fluorescence value in the absence of a test substance, the suppression activity of a test substance was measured.

SMILES | IC50 (A549) [nM] | IC50 (TTK) [nM]
COC1CCN(c2cc(NCC3CCOCC3)c3ncc(-c4ccc(C(=O)NC5CC5)cc4)n3n2)CC1 [Example 2-26] | 50 to 500 | 8.9
CCN(c1cc(NCC2CCOCC2)c2ncc(-c3ccc(C(=O)NC4CC4)cc3)n2n1)C1CCCC1 [Example 2-27] | 50 to 500 | 6
CN(c1cc(NCC2CCOCC2)c2ncc(-c3ccc(C(=O)NC4CC4)cc3)n2n1)C1CCCC1 [Example 2-28] | 50 to 500 | 3.7
COCCN(c1cc(NCC2CCOCC2)c2ncc(-c3ccc(C(=O)NC4CC4)cc3)n2n1)C1CCCC1 [Example 2-29] | 50 to 500 | 6.2
O=C(NC1CC1)c1ccc(-c2cnc3c(NCC4CCOCC4)cc(NCC(F)(F)F)nn23)cc1 [Example 2-30] | 50 to 500 | 11.9
CC(C)CN(CC(F)(F)F)c1cc(NCC2CCOCC2)c2ncc(-c3ccc(C(=O)NC4CC4)cc3)n2n1 [Example 2-32] | 50 to 500 | 3.9
CC(C)CN(CC1CC1)c1cc(NCC2CCOCC2)c2ncc(-c3ccc(C(=O)NC4CC4)cc3)n2n1 [Example 2-33] | 500 to 1000 | 5.4
O=C(NC1CC1)c1ccc(-c2cnc3c(NCC4CCOCC4)cc(Nc4ccccc4O)nn23)cc1 [Example 2-34] | 50 to 500 | 3.7
O=C(NC1CC1)c1ccc(-c2cnc3c(NCC4CCOCC4)cc(Nc4ncccc4O)nn23)cc1 [Example 2-35] | 1000 to 10000 | 19.3
O=C(NC1CC1)c1ccc(-c2cnc3c(NCC4CCOCC4)cc(NC(=O)C4CCCCC4)nn23)cc1 [Example 2-36] | 1000 to 10000 | 44.2
O=C(NC1CC1)c1ccc(-c2cnc3c(NCC4CCOCC4)cc(NC45CC6CC(CC4C6)C5)nn23)cc1 [Example 2-37] | ≤ 50 | 2.7
O=C(NC1CC1)c1ccc(-c2cnc3c(NCC4CCOCC4)cc(NC4CC5CCCC(C5)C4)nn23)cc1 (stereo not shown) [Example 2-38] | ≤ 50 | 4.5
O=C(NC1CC1)c1ccc(-c2cnc3c(NCC4CCOCC4)cc(N4CCCC4=O)nn23)cc1 [Example 2-39] | 50 to 500 | 22
O=C(NC1CC1)c1ccc(-c2cnc3c(NCC4CCOCC4)cc(N4CCCCS4(=O)=O)nn23)cc1 [Example 2-40] | 50 to 500 | 7.5
C[C@@H]1CN(c2cc(NCC3CCOCC3)c3ncc(-c4ccc(C(=O)NC5CC5)cc4)n3n2)C[C@H](C)O1 [Example 2-41] | 50 to 500 | 10.1
O=C(NC1CC1)c1ccc(-c2cnc3c(NCC4CCOCC4)cc(N[C@H]4CC[C@H](O)CC4)nn23)cc1 [Example 2-43] | 500 to 1000 | 12.5
O=C(NC1CC1)c1ccc(-c2cnc3c(NCC4CCOCC4)cc(N4CCN(C(=O)C5CC5)CC4)nn23)cc1 [Example 2-47] | 50 to 500 | 3.1
CC(=O)NCC1CN(c2cc(NCC3CCOCC3)c3ncc(-c4ccc(C(=O)NC5CC5)cc4)n3n2)CCO1 (stereo not shown) [Example 2-48] | 1000 to 10000 | 13.9
O=C(NC1CC1)c1ccc(-c2cnc3c(NCC4CCOCC4)cc(N4CCOC(CO)C4)nn23)cc1 (stereo not shown) [Example 2-49] | 500 to 1000 | 17.8
O=C(NC1CC1)c1ccc(-c2cnc3c(NCC4CCOCC4)cc(N4CCC(C(F)(F)F)CC4)nn23)cc1 [Example 2-51] | 50 to 500 | 13.4
COCC(C)Nc1cc(NCC2CCOCC2)c2ncc(-c3ccc(C(=O)NC4CC4)cc3)n2n1 (stereo not shown) [Example 2-52] | 50 to 500 | 17.8

SMILES | IC50 (A549) [nM] | IC50 (TTK) [nM]
O=C(NC1CC1)c1ccc(-c2cnc3c(NCC4CCOCC4)cc(N4CCCC4)nn23)cc1 [Example 2-53] | 1000 to 10000 | 25.9
O=C(NC1CC1)c1ccc(-c2cnc3c(NCC4CCOCC4)cc(NC4CC=CC4)nn23)cc1 [Example 2-54] | 50 to 500 | 7.4
CC(C)C(C)Nc1cc(NCC2CCOCC2)c2ncc(-c3ccc(C(=O)NC4CC4)cc3)n2n1 (stereo not shown) [Example 2-55] | 50 to 500 | 4.9
CC(C)(C)CNc1cc(NCC2CCOCC2)c2ncc(-c3ccc(C(=O)NC4CC4)cc3)n2n1 [Example 2-57] | 50 to 500 | 4.5
CCCC(C)Nc1cc(NCC2CCOCC2)c2ncc(-c3ccc(C(=O)NC4CC4)cc3)n2n1 (stereo not shown) [Example 2-58] | 50 to 500 | 5.5
CCC(C)CNc1cc(NCC2CCOCC2)c2ncc(-c3ccc(C(=O)NC4CC4)cc3)n2n1 (stereo not shown) [Example 2-59] | 50 to 500 | 5.2
CC(Nc1cc(NCC2CCOCC2)c2ncc(-c3ccc(C(=O)NC4CC4)cc3)n2n1)C(C)(C)C (stereo not shown) [Example 2-60] | ≤ 50 | 4.6
CC(Nc1cc(NCC2CCOCC2)c2ncc(-c3ccc(C(=O)NC4CC4)cc3)n2n1)C(F)(F)F (stereo not shown) [Example 2-61] | ≤ 50 | 5.1
O=C(NC1CC1)c1ccc(-c2cnc3c(NCC4CCOCC4)cc(N4CCCC4CO)nn23)cc1 (stereo not shown) [Example 2-62] | 50 to 500 | 8.7
CC1CCCCC1Nc1cc(NCC2CCOCC2)c2ncc(-c3ccc(C(=O)NC4CC4)cc3)n2n1 (stereo not shown) [Example 2-63] | ≤ 50 | 2.9
O=C(NC1CC1)c1ccc(-c2cnc3c(NCC4CCOCC4)cc(NC45CC6CC(CC(C6)C4)C5)nn23)cc1 [Example 2-64] | ≤ 50 | 1.9
COC[C@@H]1CCCN1c1cc(NCC2CCOCC2)c2ncc(-c3ccc(C(=O)NC4CC4)cc3)n2n1 [Example 2-66] | 50 to 500 | 4.5
O=C(NC1CC1)c1ccc(-c2cnc3c(NCC4CCOCC4)cc(NC4CCC(F)(F)CC4)nn23)cc1 [Example 2-67] | 50 to 500 | 3.7
CCC(C)(C)Nc1cc(NCC2CCOCC2)c2ncc(-c3ccc(C(=O)NC4CC4)cc3)n2n1 [Example 2-68] | ≤ 50 | 2.9
O=C(NC1CC1)c1ccc(-c2cnc3c(NCC4CCOCC4)cc(NC4CCCCC4O)nn23)cc1 (stereo not shown) [Example 2-70] | 50 to 500 | 4.5
NC1CCCCC1Nc1cc(NCC2CCOCC2)c2ncc(-c3ccc(C(=O)NC4CC4)cc3)n2n1 (stereo not shown) [Example 2-71] | 1000 to 10000 | 9.4
CC1(Nc2cc(NCC3CCOCC3)c3ncc(-c4ccc(C(=O)NC5CC5)cc4)n3n2)CCS(=O)(=O)C1 (stereo not shown) [Example 2-72] | 50 to 500 | 3.9
O=C(NC1CC1)c1ccc(-c2cnc3c(NCC4CCOCC4)cc(NC4C5CC6CC(C5)CC4C6)nn23)cc1 (stereo not shown) [Example 2-73] | 50 to 500 | 3.5
CC1(Nc2cc(NCC3CCOCC3)c3ncc(-c4ccc(C(=O)NC5CC5)cc4)n3n2)CCCCC1 [Example 2-74] | ≤ 50 | 2.6
CC1(Nc2cc(NCC3CCOCC3)c3ncc(-c4ccc(C(=O)NC5CC5)cc4)n3n2)CCCC1 [Example 2-75] | ≤ 50 | 3.6
